The compounds below were run against T1, human NaV1.8 (Homo sapiens, UniProt Q9Y5Y9) (assay: Electrophysiology: voltage-clamp recordings, whole-cell patch clamp on Qube384 automated platform). Conditions: HEK-NaV1.8 (NM 006514.1) with b3 recombinant cell line, multi hole plates, ambient room temperature, read-out: Potency category (human NaV1.8 IC50).
T1 construct: expressed in transfected cells; host or cells: HEK
T1 sequence (Q9Y5Y9 whole entry): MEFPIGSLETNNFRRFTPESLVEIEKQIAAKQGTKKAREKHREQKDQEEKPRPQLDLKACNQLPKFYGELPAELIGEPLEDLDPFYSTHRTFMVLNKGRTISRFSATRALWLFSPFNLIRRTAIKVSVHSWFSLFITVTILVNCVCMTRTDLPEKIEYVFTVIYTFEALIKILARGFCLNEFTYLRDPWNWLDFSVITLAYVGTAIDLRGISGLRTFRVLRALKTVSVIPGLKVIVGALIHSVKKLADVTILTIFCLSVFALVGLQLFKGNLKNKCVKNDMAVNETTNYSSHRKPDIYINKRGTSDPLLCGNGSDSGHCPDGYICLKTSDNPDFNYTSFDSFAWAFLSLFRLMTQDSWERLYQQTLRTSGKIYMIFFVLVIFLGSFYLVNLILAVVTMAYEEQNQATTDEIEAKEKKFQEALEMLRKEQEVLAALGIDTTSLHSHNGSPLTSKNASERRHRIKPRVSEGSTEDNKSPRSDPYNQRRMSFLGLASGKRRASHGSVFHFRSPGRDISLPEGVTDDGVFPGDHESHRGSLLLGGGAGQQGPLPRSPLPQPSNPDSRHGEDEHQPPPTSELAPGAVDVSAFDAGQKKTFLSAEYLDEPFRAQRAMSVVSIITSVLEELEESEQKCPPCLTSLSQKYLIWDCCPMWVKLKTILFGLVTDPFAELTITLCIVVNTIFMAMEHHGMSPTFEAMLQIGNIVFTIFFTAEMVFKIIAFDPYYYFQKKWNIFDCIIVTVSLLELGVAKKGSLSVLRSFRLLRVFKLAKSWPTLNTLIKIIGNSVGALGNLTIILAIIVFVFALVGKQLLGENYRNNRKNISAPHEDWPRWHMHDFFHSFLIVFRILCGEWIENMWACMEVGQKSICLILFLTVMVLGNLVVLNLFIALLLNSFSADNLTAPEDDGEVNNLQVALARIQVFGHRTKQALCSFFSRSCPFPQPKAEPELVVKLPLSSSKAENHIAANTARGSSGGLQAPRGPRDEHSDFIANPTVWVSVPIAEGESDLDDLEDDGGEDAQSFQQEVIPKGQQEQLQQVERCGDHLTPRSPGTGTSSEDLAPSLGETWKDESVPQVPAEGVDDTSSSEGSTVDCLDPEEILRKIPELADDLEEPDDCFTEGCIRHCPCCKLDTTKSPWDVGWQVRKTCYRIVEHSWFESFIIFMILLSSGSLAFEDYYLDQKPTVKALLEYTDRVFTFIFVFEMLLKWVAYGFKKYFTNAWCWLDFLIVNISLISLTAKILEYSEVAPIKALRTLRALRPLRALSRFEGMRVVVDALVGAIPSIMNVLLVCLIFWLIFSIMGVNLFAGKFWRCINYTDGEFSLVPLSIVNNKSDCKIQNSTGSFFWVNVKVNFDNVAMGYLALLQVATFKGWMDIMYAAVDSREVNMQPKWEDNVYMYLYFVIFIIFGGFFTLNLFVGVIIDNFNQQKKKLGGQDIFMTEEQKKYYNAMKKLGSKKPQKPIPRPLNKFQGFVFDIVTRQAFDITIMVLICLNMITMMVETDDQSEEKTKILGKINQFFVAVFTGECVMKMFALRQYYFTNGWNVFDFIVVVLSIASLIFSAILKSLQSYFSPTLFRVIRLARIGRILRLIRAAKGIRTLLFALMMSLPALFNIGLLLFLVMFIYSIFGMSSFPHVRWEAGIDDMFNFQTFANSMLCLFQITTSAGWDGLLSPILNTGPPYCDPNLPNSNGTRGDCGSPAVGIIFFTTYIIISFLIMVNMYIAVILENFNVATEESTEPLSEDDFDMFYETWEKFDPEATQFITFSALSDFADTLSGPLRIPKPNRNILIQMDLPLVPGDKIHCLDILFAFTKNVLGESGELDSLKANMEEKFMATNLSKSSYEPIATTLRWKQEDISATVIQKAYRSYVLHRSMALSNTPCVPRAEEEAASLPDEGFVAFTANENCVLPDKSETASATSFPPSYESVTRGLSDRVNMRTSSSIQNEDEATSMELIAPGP
Format: cell-based
Method: Electrophysiology: Voltage-Clamp recordings
The following NaV1.8 recombinant cell line was used for recordings: HEK-NaV1.8 (NM 006514.1) with b3 (NM_018400.3).
Sodium currents were measured using the patch clamp technique in the whole-cell configuration using the Qube384 (Sophion A/S, Copenhagen, Denmark) automated voltage clamp platform. "Multi hole" plates were used for the cell line expressing NaV1.8 while "single hole" plates were used for the recombinant cell lines expressing the other subtypes. Appropriate filters (for minimum seal resistance and minimum current size) and series resistance compensation (for high quality sodium channel recordings) were applied. Data was collected at ambient room temperature.
The recording […] solution contained (in mM): NaCl 145 mM, KCl 4 mM, CaCl2 2 mM, MgCl2 1 mM, HEPES 10 mM, Glucose 10 mM, pH 7.4 (NaOH). The […] recording solution contained (in mM): CsF 120 mM, CsCl 20 mM, NaCl 10 mM, EGTA 10 mM, HEPES 10 mM, pH 7.2 (CsOH). Currents were recorded at 25 kHz sampling frequency and filtered at 5 kHz. Series resistance compensation was applied at 65%.
Vehicle (VEH) is the control condition where cells are exposed to 0.3 % DMSO without compound. All runs include VEH controls being exposed to the same voltage protocols to assess non-compound related phenomena such as run down and then used to isolate compound dependent effects on currents.
To check for state-dependence inhibition, the following voltage-sequence was applied every 20 seconds: From a resting membrane potential of-120 mV, the first test pulse (P1; 20 ms to -10 mV) was applied to check for channels in the Resting State followed by a brief recovery (20 ms to -120 mV), then holding the membrane voltage to V1/2 (4 seconds at voltage to obtain half the channel at Rest and half Inactivated) with a subsequent second test pulse (P2; 20 ms to -10 mV) to check for channels in the Inactivated State, followed by another brief recovery (20 ms to -120 mV) and a final third test pulse (P3; 20 ms to -10 mV) to check for recovered channels.
To check for frequency-dependent inhibition, a 10 Hz protocol and a 20 Hz protocol were applied; namely,
From a resting membrane potential of -120 mV, 40-pulses (10 ms to -10 mV) was applied at 10 Hz (at 100 ms between pulses) and then at 20 Hz (at 50 ms between pulses). Each parameter was recorded (P1, P2, P3, P40 from 10Hz and P40 from 20Hz) during a control period (lasting ~ 5 minutes) when establishing the baseline and during compound period (lasting ~ 12 minutes) when test compound (or vehicle) was applied. For each parameter, the value at the end of the compound period was normalized to the vehicle baseline; as follows Normalized Inhibition (NormCPD) = (CPD Valueend CPD period)/(VEH Valueend Control Period) [formula]
To adjust for any variance in the Na^+ current signal during the compound period (owing to cumulative inactivation independent of compound or shifts in biophysics over time), a dedicated segment of the recording wells in each 384 plate were dedicated to having only vehicle exposure. These vehicle-only recordings were used to correct for any apparent "run-up" or "run-down" in the experiment. Normalized Inhibition (NormVEH) = (VEH Valueend CPD period)/(VEH Valueend Control Period) [formula]
The adjusted inhibition was calculated as follows: % Inhibitioncorrected = 100 × (NormCPD −NormVEH)/(100−NormVEH) [formula]
Percent inhibition was determined and IC50 values were calculated using a 4 parameter logistic model within XLFit Software (IDBS, Boston MA): % Inhibitioncorrected = A + ((B−A))/((1 + (((x)/(C)))^D) [formula] where A and B are the maximal and minimum inhibition respectively, C is the IC50 concentration and D is the (Hill) slope.
With `Cc1c(C(C)(F)F)nn(CC2(C)CC(F)(F)CC2C)c1C(=O)Nc1ccnc(C(N)=O)c1` (single isomer, unassigned) [Example 10a, 4-(1-((4,4-difluoro-1,2-dimethylcyclopentyl)methyl)-3-(1,1-difluoroethyl)-4-methyl-1H-pyrazole-5-carboxamido)picolinamide] the IC50 was at most 100 nM.
For `Cc1c(C(C)(F)F)nn(CC2(C)CC(F)(F)CC2C)c1C(=O)Nc1ccnc(C(N)=O)c1` (single isomer, unassigned) [Example 10b, 4-(1-((4,4-difluoro-1,2-dimethylcyclopentyl)methyl)-3-(1,1-difluoroethyl)-4-methyl-1H-pyrazole-5-carboxamido)picolinamide], the IC50 was at most 100 nM.
`Cc1c(C(C)(F)F)nn(CC2(C)CC(F)(F)CC2C)c1C(=O)Nc1ccnc(C(N)=O)c1` (single isomer, unassigned) [Example 10c, 4-(1-((4,4-difluoro-1,2-dimethylcyclopentyl)methyl)-3-(1,1-difluoroethyl)-4-methyl-1H-pyrazole-5-carboxamido)picolinamide] showed an IC50 of at most 100 nM.
Work on `Cc1c(C(C)(F)F)nn(CC2(C)CC(F)(F)CC2C)c1C(=O)Nc1ccnc(C(N)=O)c1` (single isomer, unassigned) [Example 10d, 4-(1-((4,4-difluoro-1,2-dimethylcyclopentyl)methyl)-3-(1,1-difluoroethyl)-4-methyl-1H-pyrazole-5-carboxamido)picolinamide] yielded an IC50 of at most 100 nM.
For `CC1(C)CC(Cn2nc(C3CC3)c(C(F)(F)F)c2C(=O)Nc2ccnc(C(N)=O)c2)O1` (single isomer, unassigned) [Example 17a, 4-(3-cyclopropyl-1-((4,4-dimethyloxetan-2-yl)methyl)-4-(trifluoromethyl)-1H-pyrazole-5-carboxamido)picolinamide], the IC50 was 100 to 1000 nM.
With `CC1(C)CC(Cn2nc(C3CC3)c(C(F)(F)F)c2C(=O)Nc2ccnc(S(C)(=O)=O)c2)O1` (single isomer, unassigned) [Example 22a, 3-cyclopropyl-1-((4,4-dimethyloxetan-2-yl)methyl)-N-(2-(methylsulfonyl)pyridin-4-yl)-4-(trifluoromethyl)-1H-pyrazole-5-carboxamide] the IC50 was 1000 to 10000 nM.
`Cc1c(C(C)(F)F)nn(CC2(C)CC(F)(F)CC2C)c1C(=O)Nc1ccnc(S(N)(=O)=O)c1` (single isomer, unassigned) [Example 43a, 1-((4,4-difluoro-1,2-dimethylcyclopentyl)methyl)-3-(1,1-difluoroethyl)-4-methyl-N-(2-sulfamoylpyridin-4-yl)-1H-pyrazole-5-carboxamide] was tested, and the IC50 was at most 100 nM.
Compound `Cc1c(C(C)(F)F)nn(CC2(C)CC(F)(F)CC2C)c1C(=O)Nc1ccnc(S(N)(=O)=O)c1` (single isomer, unassigned) [Example 43b, 1-((4,4-difluoro-1,2-dimethylcyclopentyl)methyl)-3-(1,1-difluoroethyl)-4-methyl-N-(2-sulfamoylpyridin-4-yl)-1H-pyrazole-5-carboxamide] has an IC50 of at most 100 nM.
In the case of `Cc1c(C(C)(F)F)nn(CC2(C)CC(F)(F)CC2C)c1C(=O)Nc1ccnc(S(N)(=O)=O)c1` (single isomer, unassigned) [Example 43c, 1-((4,4-difluoro-1,2-dimethylcyclopentyl)methyl)-3-(1,1-difluoroethyl)-4-methyl-N-(2-sulfamoylpyridin-4-yl)-1H-pyrazole-5-carboxamide], the IC50 is reported as at most 100 nM.
With `Cc1c(C(C)(F)F)nn(CC2(C)CC(F)(F)CC2C)c1C(=O)Nc1ccnc(S(N)(=O)=O)c1` (single isomer, unassigned) [Example 43d, 1-((4,4-difluoro-1,2-dimethylcyclopentyl)methyl)-3-(1,1-difluoroethyl)-4-methyl-N-(2-sulfamoylpyridin-4-yl)-1H-pyrazole-5-carboxamide] the IC50 was at most 100 nM.
`Cc1nn(CC23CC(F)(C2)C3)c(C(=O)Nc2ccnc(C(N)=O)c2)c1C(F)(F)F` [Example 1, 4-(1-((3-fluorobicyclo[1.1.1]pentan-1-yl)methyl)-3-methyl-4-(trifluoromethyl)-1H-pyrazole-5-carboxamido)picolinamide] was tested, and the IC50 was 100 to 1000 nM.
For `Cc1c(C(C)(F)F)nn(CC23CC(F)(C2)C3)c1C(=O)Nc1ccnc(C(N)=O)c1` [Example 2, 4-(3-(1,1-difluoroethyl)-1-((3-fluorobicyclo [1.1.1]pentan-1-yl)methyl)-4-methyl-1H-pyrazole-5-carboxamido)picolinamide], the IC50 was 100 to 1000 nM.
Compound `NC(=O)c1cc(NC(=O)c2c(C(F)(F)F)c(C3CC3)nn2CC23CC(CO2)C3)ccn1` [Example 3] has an IC50 of 100 to 1000 nM.
With `Cc1c(C(C)(F)F)nn(CC23CC(C(F)(F)F)(C2)C3)c1C(=O)Nc1ccnc(C(N)=O)c1` [Example 4] the IC50 was at most 100 nM.
`Cc1c(C(F)(F)F)nn(CC23CC(C(F)(F)F)(C2)C3)c1C(=O)Nc1ccnc(C(N)=O)c1` [Example 8, 4-(4-methyl-3-(trifluoromethyl)-1-((3-(trifluoromethyl)bicyclo [1.1.1]pentan-1-yl)methyl)-1H-pyrazole-5-carboxamido)picolinamide] was tested, and the IC50 was at most 100 nM.
Work on `NC(=O)c1cc(NC(=O)c2c(C(F)(F)F)c(C3CC3)nn2CC23CC(C(F)(F)F)(C2)C3)ccn1` [Example 9, 4-(3-cyclopropyl-4-(trifluoromethyl)-1-((3-(trifluoromethyl)bicyclo [1.1.1]pentan-1-yl)methyl)-1H-pyrazole-5-carboxamido)picolinamide] yielded an IC50 of at most 100 nM.
Work on `COC12CC(Cn3nc(C4CC4)c(C(F)(F)F)c3C(=O)Nc3ccnc(C(N)=O)c3)(C1)C2` [Example 14, 4-(3-cyclopropyl-1-((3-methoxybicyclo[1.1.1]pentan-1-yl)methyl)-4-(trifluoromethyl)-1H-pyrazole-5-carboxamido)picolinamide] yielded an IC50 of 100 to 1000 nM.
With `NC(=O)c1cc(NC(=O)c2c(C(F)(F)F)c(C3CC3)nn2CC23CC(F)(C2)C3)ccn1` [Example 15, 4-(3-cyclopropyl-1-((3-fluorobicyclo [1.1.1]pentan-1-yl)methyl)-4-(trifluoromethyl)-1H-pyrazole-5-carboxamido)picolinamide] the IC50 was at most 100 nM.
`CC12COC(Cn3nc(C4CC4)c(C(F)(F)F)c3C(=O)Nc3ccnc(C(N)=O)c3)(C1)C2` [Example 16, 4-(3-cyclopropyl-1-((4-methyl-2-oxabicyclo[2.1.1]hexan-1-yl)methyl)-4-(trifluoromethyl)-1H-pyrazole-5-carboxamido)picolinamide] gave an IC50 of at most 100 nM.
Compound `Cc1nn(CC23CC(C(F)(F)F)(C2)C3)c(C(=O)Nc2ccnc(C(N)=O)c2)c1C(F)(F)F` [Example 18, 4-(3-methyl-4-(trifluoromethyl)-1-((3-(trifluoromethyl)bicyclo [1.1.1]pentan-1-yl)methyl)-1H-pyrazole-5-carboxamido)picolinamide] has an IC50 of at most 100 nM.
`CC12COC(Cn3nc(C4CC4)c(C(F)(F)F)c3C(=O)Nc3ccnc(S(C)(=O)=O)c3)(C1)C2` [Example 19, 3-cyclopropyl-1-((4-methyl-2-oxabicyclo[2.1.1]hexan-1-yl)methyl)-N-(2-(methylsulfonyl)pyridin-4-yl)-4-(trifluoromethyl)-1H-pyrazole-5-carboxamide] gave an IC50 of 100 to 1000 nM.
With `COC12CC(Cn3nc(C4CC4)c(C(F)(F)F)c3C(=O)Nc3ccnc(S(C)(=O)=O)c3)(C1)C2` [Example 20] the IC50 was 100 to 1000 nM.
`CS(=O)(=O)c1cc(NC(=O)c2c(C(F)(F)F)c(C3CC3)nn2CC23CC(F)(C2)C3)ccn1` [Example 21, 3-cyclopropyl-1-((3-fluorobicyclo [1.1.1]pentan-1-yl)methyl)-N-(2-(methylsulfonyl)pyridin-4-yl)-4-(trifluoromethyl)-1H-pyrazole-5-carboxamide] was tested, and the IC50 was at most 100 nM.

Source: patent publication EP4385979A1 (Grünenthal GmbH, priority 2022, dated 2024)
